Source: US8153821B2, “Compounds” (priority 2008, dated 2012)

Key:
[1] = target: T1, human native muscle-type nicotinic receptors (likely α1β1γδ) (Homo sapiens, UniProt P02708+P07510+Q07001); test: [3H]epibatidine binding, TE-671 membranes
T1 construct: human native muscle-type nicotinic receptors (likely α1β1γδ); endogenous in cells; host or cells: TE-671 (TE671/RD)

[2] = tested on: CYP1A2, CYP2C9, CYP2C19, CYP2D6, CYP3A4 (5 major CYPs); test: in vitro; assay type: in vitro ADME; details: human
Experimental: (§1) Inhibition of CYP1A2, CYP2C9, CYP2C19, CYP2D6 and CYP3A4 catalytic activity by (R)-3-((E)-2-(pyrrolidin-3-yl)vinyl)-5-(tetrahydropyran-4-yloxy)pyridine or a slat thereof was assessed using a fluorogenic CYP assay. Probe substrates which fluoresce upon CYP catalyzed oxidation were used to evaluate the degree of inhibition of the test substrate. A single concentration of each probe substrate (at approximately the apparent Km value) and two different concentrations of (R)-3-((E)-2-(pyrrolidin-3-yl)vinyl)-5-(tetrahydropyran-4-yloxy)pyridine hemigalactarate (2 and 20 μM) were tested in duplicate. Fluorescence intensity at selected wavelengths was used as a measure of enzyme activity. Decreased fluorescence in the presence of (R)-3-((E)-2-(pyrrolidin-3-yl)vinyl)-5-(tetrahydropyran-4-yloxy)pyridine or a sat thereof was an indication of inhibition. […] Duplicate samples were run alongside the positive and negative controls. Incubation of test samples was performed at 37° C. Experimental parameters are outlined in Table 2.

CYP2B6 = CYP2B6 (Homo sapiens, UniProt P20813); assay type: in vitro ADME
[3] = tested on: neuronal nicotinic receptors (α-BnTx insensitive); test: Multiple receptor screening assay, nicotinic receptor; assay type: binding; details: single concentration of 10 μM
Experimental: (R)-3-((E)-2-(Pyrrolidin-3-yl)vinyl)-5-(tetrahydropyran-4-yloxy)pyridine or a salt thereof was tested for selectivity against a panel of 65 receptors.

α4β2 = α4β2 (Homo sapiens, UniProt P17787+P43681); test: In vitro assay at α4β2, response compared to acetylcholine
Pgp brain pump = Pgp brain pump (Homo sapiens, UniProt P08183); assay type: in vitro ADME; details: not told
[4] = target: T2, human recombinant α4β2 nicotinic receptors (Homo sapiens, UniProt P17787+P43681); test: Radioligand binding, human recombinant α4β2 in SH-EP1 cellular membranes
T2 construct: expressed in transfected cells; host or cells: SH-EP1
Experimental: Preparation of membranes from SH-EP1/human α4β2 clonal cells: Cell pellets from 40 150 mm culture dishes were pooled, and homogenized by Polytron (Kinematica GmbH, Switzerland) in 20 milliliters of ice-cold preparative buffer. […] The resulting pellet was re-suspended in 20 mL of ice-cold preparative buffer and stored at −20° C.
Assay. On the day of the assay, the frozen membranes were thawed and spun at 48,000×g for 20 min. The supernatant was decanted and discarded. The pellet was resuspended in Dulbecco's phosphate buffered saline (PBS, Life Technologies) pH 7.4 and homogenized with the Polytron for 6 seconds. Protein concentrations were determined using a Pierce BCA Protein Assay Kit, with bovine serum albumin as the standard (Pierce Chemical Company, Rockford, Ill.).
(§2) Incubation was terminated by rapid filtration on a multi-manifold tissue harvester (Brandel, Gaithersburg, Md.) using GF/B filters presoaked in 0.33% polyethyleneimine (w/v) to reduce non-specific binding. Tissue was rinsed 3 times in PBS, pH 7.4. […] Filters were then counted to determine radioactivity bound to the membranes by liquid scintillation counting (2200CA Tri-Carb LSC, Packard Instruments, 50% efficiency or Wallac Trilux 1450 MicroBeta, 40% efficiency, Perkin Elmer).
(§3) Data were expressed as disintegrations per minute (DPMs). […]

[5] = target: T3, rat native α4β2 receptors (Rattus norvegicus, UniProt P09483+P12390); test: Radioligand binding, rat native α4β2 in rat cortical membranes
T3 construct: rat native α4β2 receptors in rat cortical membranes; from tissue; host or cells: rat cerebral cortex (female Sprague-Dawley)
Experimental: Preparation of membranes from rat cortex: Rats (female, Sprague-Dawley), weighing 150-250 g, were maintained on a 12 h light/dark cycle and were allowed free access to water and food supplied by PMI Nutrition International, Inc. Animals were anesthetized with 70% CO2, and then decapitated. Brains were removed and placed on an ice-cold platform. The cerebral cortex was removed and placed in 20 volumes (weight:volume) of ice-cold preparative buffer (137 mM NaCl, 10.7 mM KCl, 5.8 mM KH2PO4, 8 mM Na2HPO4, 20 mM HEPES (free acid), 5 mM iodoacetamide, 1.6 mM EDTA, pH 7.4); PMSF, dissolved in methanol to a final concentration of 100 μM, was added and the suspension was homogenized by Polytron. […]
Assay. […] Protein concentrations were determined using a Pierce BCA Protein Assay Kit, with bovine serum albumin as the standard (Pierce Chemical Company, Rockford, Ill.).
as §2, with “binding.” for “binding. Tissue was rinsed 3 times in PBS, pH 7.4.”
as §3

CYP3A4 [6] = target: T4, CYP3A4 (Homo sapiens, UniProt P08684); assay type: in vitro ADME
CYP2D6 [7] = target: T5, CYP2D6 (Homo sapiens, UniProt P10635); assay type: in vitro ADME
CYP1A2 [8] = target: T6, CYP1A2 (Homo sapiens, UniProt P05177); assay type: in vitro ADME
CYP2C19 = CYP2C19 (Homo sapiens, UniProt P33261); test: biochemical; assay type: in vitro ADME
Experimental: as §1

CYP2C9 = CYP2C9 (Homo sapiens, UniProt P11712); test: biochemical; assay type: in vitro ADME
Experimental: as §1

CYP3A4 [9] = target: T4, CYP3A4; test: biochemical; assay type: in vitro ADME
Experimental: as §1

CYP1A2 [10] = target: T6, CYP1A2; test: biochemical; assay type: in vitro ADME
Experimental: as §1

CYP2D6 [11] = target: T5, CYP2D6; test: biochemical; assay type: in vitro ADME
Experimental: as §1

hERG = target: T7, hERG (Homo sapiens, UniProt Q12809); test: cell-based
T7 construct: expressed in transfected cells; host or cells: HEK-239 (so in the source)
T7 sequence (Q12809 whole entry): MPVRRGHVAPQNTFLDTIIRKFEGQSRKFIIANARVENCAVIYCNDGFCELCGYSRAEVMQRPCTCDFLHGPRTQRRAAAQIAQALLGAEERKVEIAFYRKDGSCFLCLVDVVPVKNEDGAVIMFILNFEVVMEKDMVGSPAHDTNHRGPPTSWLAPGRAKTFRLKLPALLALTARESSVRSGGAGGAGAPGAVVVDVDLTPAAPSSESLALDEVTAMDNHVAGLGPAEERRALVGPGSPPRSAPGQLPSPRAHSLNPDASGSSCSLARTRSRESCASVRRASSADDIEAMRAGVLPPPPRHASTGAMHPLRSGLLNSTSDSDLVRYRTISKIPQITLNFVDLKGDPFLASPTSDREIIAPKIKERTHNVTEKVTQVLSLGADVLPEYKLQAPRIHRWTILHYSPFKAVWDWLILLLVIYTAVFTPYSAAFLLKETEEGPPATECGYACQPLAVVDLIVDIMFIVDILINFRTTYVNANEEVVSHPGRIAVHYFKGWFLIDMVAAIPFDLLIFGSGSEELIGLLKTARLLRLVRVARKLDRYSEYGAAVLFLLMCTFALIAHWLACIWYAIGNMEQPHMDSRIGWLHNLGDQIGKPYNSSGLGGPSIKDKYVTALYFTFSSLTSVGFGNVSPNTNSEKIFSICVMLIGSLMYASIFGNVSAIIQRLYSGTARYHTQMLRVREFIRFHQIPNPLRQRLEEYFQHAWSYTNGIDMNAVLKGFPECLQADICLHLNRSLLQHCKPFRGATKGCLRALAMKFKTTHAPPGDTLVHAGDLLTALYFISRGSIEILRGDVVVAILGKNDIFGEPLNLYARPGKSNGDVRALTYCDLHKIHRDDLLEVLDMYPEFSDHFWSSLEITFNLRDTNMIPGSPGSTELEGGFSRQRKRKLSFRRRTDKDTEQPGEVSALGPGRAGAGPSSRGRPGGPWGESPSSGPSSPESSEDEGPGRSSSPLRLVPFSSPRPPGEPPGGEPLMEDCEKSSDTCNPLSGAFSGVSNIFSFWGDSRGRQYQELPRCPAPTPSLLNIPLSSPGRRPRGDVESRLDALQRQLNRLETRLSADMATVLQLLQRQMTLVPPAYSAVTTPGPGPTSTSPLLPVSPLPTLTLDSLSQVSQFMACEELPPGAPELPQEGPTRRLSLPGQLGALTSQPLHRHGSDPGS

T6 sequence (P05177 whole entry): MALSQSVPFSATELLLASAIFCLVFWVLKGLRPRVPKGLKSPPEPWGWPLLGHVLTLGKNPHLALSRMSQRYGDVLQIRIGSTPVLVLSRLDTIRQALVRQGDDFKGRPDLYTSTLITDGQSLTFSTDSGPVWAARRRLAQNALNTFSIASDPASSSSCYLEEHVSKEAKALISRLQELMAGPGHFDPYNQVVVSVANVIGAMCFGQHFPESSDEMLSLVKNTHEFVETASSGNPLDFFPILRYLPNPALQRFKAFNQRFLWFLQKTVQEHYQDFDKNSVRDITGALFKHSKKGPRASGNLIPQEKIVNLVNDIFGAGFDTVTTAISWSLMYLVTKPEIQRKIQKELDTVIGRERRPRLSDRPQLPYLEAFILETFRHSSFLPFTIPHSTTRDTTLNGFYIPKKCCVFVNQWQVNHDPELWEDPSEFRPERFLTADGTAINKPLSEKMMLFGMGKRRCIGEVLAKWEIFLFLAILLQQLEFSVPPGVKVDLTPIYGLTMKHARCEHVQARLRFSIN
T5 sequence (P10635 whole entry): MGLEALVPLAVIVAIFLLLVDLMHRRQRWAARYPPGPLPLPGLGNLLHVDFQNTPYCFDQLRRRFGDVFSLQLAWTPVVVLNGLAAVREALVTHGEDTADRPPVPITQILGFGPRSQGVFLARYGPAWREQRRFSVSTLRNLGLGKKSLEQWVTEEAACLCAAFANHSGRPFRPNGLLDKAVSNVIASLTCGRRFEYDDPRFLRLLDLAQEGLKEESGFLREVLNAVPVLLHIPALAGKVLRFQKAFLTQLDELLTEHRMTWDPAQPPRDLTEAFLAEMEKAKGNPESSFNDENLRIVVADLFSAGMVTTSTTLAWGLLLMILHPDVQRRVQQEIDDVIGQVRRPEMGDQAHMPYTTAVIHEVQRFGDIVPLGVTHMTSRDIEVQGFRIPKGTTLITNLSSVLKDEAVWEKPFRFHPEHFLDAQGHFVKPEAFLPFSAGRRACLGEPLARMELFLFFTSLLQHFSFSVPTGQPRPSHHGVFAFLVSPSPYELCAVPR
T4 sequence (P08684 whole entry): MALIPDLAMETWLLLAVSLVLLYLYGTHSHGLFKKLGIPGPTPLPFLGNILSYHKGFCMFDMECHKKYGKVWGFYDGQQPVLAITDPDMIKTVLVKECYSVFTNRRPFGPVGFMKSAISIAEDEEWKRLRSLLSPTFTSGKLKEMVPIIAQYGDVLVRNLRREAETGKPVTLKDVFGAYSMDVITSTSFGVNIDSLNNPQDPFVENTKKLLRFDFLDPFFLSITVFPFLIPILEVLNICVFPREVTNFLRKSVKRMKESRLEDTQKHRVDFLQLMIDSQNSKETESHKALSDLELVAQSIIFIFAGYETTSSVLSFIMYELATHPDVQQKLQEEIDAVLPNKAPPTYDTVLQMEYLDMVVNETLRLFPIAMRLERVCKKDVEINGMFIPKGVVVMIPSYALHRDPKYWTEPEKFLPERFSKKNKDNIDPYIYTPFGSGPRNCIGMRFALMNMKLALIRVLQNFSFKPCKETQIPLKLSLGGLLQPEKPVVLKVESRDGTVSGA
CYP2C19, sequence (P33261 whole entry): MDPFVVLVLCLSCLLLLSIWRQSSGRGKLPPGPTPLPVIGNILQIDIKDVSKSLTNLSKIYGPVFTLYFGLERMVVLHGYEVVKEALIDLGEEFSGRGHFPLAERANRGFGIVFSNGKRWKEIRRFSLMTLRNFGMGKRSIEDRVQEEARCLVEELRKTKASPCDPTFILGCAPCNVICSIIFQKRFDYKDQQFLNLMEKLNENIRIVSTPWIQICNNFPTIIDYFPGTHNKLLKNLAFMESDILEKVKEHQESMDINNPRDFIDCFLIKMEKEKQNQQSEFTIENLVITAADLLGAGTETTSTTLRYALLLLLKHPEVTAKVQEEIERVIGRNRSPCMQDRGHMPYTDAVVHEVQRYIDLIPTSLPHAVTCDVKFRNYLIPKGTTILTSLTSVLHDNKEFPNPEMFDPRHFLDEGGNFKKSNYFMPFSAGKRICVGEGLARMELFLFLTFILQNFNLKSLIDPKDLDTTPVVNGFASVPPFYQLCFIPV
CYP2B6, sequence (P20813 whole entry): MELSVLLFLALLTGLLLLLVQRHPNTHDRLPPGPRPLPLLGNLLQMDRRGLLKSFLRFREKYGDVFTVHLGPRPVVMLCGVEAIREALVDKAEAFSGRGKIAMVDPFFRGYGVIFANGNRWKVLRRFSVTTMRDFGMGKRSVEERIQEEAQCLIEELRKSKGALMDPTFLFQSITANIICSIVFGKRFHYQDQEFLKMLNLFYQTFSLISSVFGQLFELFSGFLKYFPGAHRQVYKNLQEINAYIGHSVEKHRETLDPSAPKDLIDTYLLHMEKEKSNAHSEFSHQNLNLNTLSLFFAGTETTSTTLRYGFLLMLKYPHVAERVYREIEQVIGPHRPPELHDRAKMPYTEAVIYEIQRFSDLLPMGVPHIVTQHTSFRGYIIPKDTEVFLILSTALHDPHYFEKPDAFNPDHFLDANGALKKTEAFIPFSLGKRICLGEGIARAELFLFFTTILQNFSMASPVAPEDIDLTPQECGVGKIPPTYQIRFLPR
T2 sequence (P43681 29-627 limits assumed): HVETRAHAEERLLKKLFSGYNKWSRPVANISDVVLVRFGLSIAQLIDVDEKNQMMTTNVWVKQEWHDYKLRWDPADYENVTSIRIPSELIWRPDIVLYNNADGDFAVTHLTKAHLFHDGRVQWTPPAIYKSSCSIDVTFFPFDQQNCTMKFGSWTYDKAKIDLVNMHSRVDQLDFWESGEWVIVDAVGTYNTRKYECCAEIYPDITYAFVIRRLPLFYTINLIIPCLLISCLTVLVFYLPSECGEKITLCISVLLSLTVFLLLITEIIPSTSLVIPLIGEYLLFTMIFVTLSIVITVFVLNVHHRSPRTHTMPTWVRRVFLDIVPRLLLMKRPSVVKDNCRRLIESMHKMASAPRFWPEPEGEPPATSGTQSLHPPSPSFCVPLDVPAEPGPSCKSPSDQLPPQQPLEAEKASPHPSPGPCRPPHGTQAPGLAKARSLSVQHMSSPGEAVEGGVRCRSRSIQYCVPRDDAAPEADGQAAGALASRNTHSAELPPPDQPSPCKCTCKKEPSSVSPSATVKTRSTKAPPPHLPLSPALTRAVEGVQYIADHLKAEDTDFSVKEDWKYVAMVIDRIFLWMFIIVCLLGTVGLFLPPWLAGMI
T2 sequence (P17787 26-502): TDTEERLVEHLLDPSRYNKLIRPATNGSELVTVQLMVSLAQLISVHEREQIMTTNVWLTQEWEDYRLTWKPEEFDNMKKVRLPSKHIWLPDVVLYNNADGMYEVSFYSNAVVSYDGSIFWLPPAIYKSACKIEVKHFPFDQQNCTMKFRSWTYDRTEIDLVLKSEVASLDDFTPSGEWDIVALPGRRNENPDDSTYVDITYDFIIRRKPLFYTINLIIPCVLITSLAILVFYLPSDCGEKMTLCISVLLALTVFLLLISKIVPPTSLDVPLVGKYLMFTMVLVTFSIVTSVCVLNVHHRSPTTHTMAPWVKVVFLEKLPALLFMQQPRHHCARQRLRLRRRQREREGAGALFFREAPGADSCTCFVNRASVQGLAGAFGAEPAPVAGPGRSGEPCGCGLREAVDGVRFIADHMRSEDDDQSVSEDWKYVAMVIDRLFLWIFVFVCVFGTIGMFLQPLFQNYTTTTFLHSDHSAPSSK
α4β2, sequence (P43681 29-627 limits assumed): as the sequence (P43681 29-627 limits assumed) above
α4β2, sequence (P17787 26-502): as the sequence (P17787 26-502) above

C(=C\[C@H]1CCNC1)/c1cncc(OC2CCOCC2)c1 [Compound A, (R)-3-((E)-2-(pyrrolidin-3-yl)vinyl)-5-(tetrahydropyran-4-yloxy)pyridine]
Ki [1]: 25 µM
IC50 [2]: > 20 µM
time-dependent inhibition of CYP2B6 (CYP2B6): no evidence of time-dependent inhibition
inhibition of binding of labelled ligand [3]: 99%
response compared to acetylcholine (α4β2): twice as great
Pgp substrate (Pgp brain pump): substrate for Pgp brain pump
Ki [4]: 0.002 µM
Ki [5]: 0.004 µM
time-dependent inhibition of CYP3A4 (CYP3A4 [6]): no evidence of time-dependent inhibition
time-dependent inhibition of CYP2D6 (CYP2D6 [7]): no evidence of time-dependent inhibition
time-dependent inhibition of CYP1A2 (CYP1A2 [8]): no evidence of time-dependent inhibition
IC50 (CYP2C19): > 20 µM
IC50 (CYP2C9): > 20 µM
IC50 (CYP3A4 [9]): > 20 µM
IC50 (CYP1A2 [10]): > 20 µM
IC50 (CYP2D6 [11]): > 20 µM
IC50 (hERG): 84 µM
